Test results from patent US11926628B2 (Gilead Sciences, Inc., priority 2021, dated 2024).

Assays:
human DGKα = human DGKα (Homo sapiens (Human), UniProt P23743); test: DGKα Biochemical Activity Assay (ADP-Glo); settings: recombinant DGKα 1 nM, 100 μM ATP, 18:1 DAG/POPS/octylglucoside micelles, 1 hour at 25° C.; geometric mean; read-out: HTBS DGKa 1X ATP KM IC50
Excerpt: Alternatively, the enzymatic activity of human DGKα was monitored in a biochemical assay in the presence or absence of compounds and using micelles containing 18:1 Diacylglycerol (DAG), 16:0-18:1 PS (POPS) and Octylglucoside as substrate. DGKα activity led to conversion of DAG and ATP to Phosphatidic Acid (PA) and ADP. Levels of ADP were monitored by bioluminescence using the ADP-Glo Kinase Assay (Promega) and were indicative of DGKα activity.
Ten nanoliters of test compound dissolved in DMSO at various concentrations were dispensed into a 384-well low volume nonbinding service white plates (Corning #3824) using a Labcyte Echo instrument. Recombinant DGKα (Carna Biosciences) in assay buffer (5 μL in 50 mM MOPS [3-(N-morpholino) propanesulfonic acid], pH 7.2; 0.0025% Triton X-100; 1 mM dithiothreitol; 5 mM MgCl2, 200 μM ATP) was added to the compound-containing plate and was incubated for 15 minutes at 25° C. A substrate solution (5 μL in 1.7 mM 1,2-dioleoyl-sn-glycerol [18:1 DAG], 13.5 mM 1-palmitoyl-2-oleoyl-sn-glycero-3-phospho-L-serine [16:0-18:1 PS](POPS), 2 μM CaCl2, 100 mM Octylglucoside (OG), 1 mM DTT) (obtained from Carna Biosciences) diluted in DGK ALPHA assay buffer was then added to start the reaction. Final concentrations were 1 nM DGKα, 100 μM ATP, 1 μM calcium chloride, 0.85 mM 1,2-dioleoyl-sn-glycerol (18:1 DAG), 6.75 mM 1-palmitoyl-2-oleoyl-sn-glycero-3-phospho-L-serine (16:0-18:1 PS) (POPS), 1 μM CaCl2), 50 mM Octylglucoside (OG) and 5 mM MgCl2. The reaction mixture was incubated at 25° C. for 1 hour. ADP-Glo Reagent (10 μL, 10 mM Mg added) provided by the kit was added to each well and incubated at 25° C. for 40 minutes. Then, 20 μL of Kinase Detection Reagent was added and incubated at 25° C. for 40 minutes. Luciferase activity of each well was measured via luminescence on an Envision plate reader (PerkinElmer).
Data were normalized based on maximum inhibition (50 μM of kinase inhibitor CU3) and no inhibition (DMSO) controls. Least squares curve fittings were performed using a four-parameter variable slope nonlinear regression model. IC50 was defined as the concentration of compound required to inhibit 50% of maximum activity. IC50 values from multiple experiments were averaged by geometric mean and the standard deviation was calculated.

[1] = system: Jurkat NFκB-luciferase cells; test: Jurkat NFκB-Luciferase Assay; format: cell-based; settings: Homo sapiens; Jurkat NFκB-luciferase cells activated with anti-CD3 antibody (OKT3), 2.5 hrs at 37° C.; geometric mean; read-out: DGK NFKb Luciferase EC50
Protocol: The activity of compounds was tested in a cell based NFκB reporter assay. Jurkat cells that are stably expressing a luciferase reporter construct under the transcriptional control of a NFκB reporter element were activated with an anti-CD3 antibody and luciferase levels were measured with a bioluminescence readout. An increase in the levels of bioluminescence was indicative of enhanced T-cell activation following DGKα inhibition by the compound.
Flat-bottom polystyrene plates (384-well, tissue culture treated) were coated overnight at 4° C. with 20 ul/well of a solution of phosphate-buffered saline supplemented with 5 ug/ml anti-CD3 antibody (clone OKT3, Biolegend). The day after, the excess antibody was washed out five times with 100 ul/well of assay medium (RPMI supplemented with 10% fetal bovine serum) using a Biotek EL406 instrument and leaving 20 ul of residual volume in each well. Jurkat NFκB-luciferase cells (Promega #) were harvested and diluted to 1 million cells/ml in assay medium. Sixty nanoliters of test compound dissolved in DMSO at various concentrations were dispensed into 384-well v-bottom polypropylene plates (Greiner) using a Labcyte Echo instrument. Thirty microliters of medium containing the Jurkat NFκB-luciferase cells were then dispensed using a Biotek MicroFlo instrument in each well of the compound-containing plate. The medium/cell/compound mixture was mixed with a Bravo instrument and 20 ul/well of the mixture was transferred to the anti-CD3-coated plate. The assay mixture was then incubated for 2.5 hrs at 37° C. followed by equilibration at 25° C. for 30 min. Forty microliters of One-Glo Ex (Promega) was then added to the assay mixture and luciferase activity was read on a Envision plate reader 7 minutes later.
Bioluminescence data were normalized based on maximum enhancement (1 micromolar of compound) and on basal activation (DMSO) controls. Least squares curve fittings were performed using a four-parameter variable slope nonlinear regression model. EC50 is defined as the concentration of compound required to produce 50% of maximum NFκB luciferase signal. EC50 values from multiple experiments were averaged by geometric mean and the standard deviation was calculated.

human DGKα, sequence (P23743 whole entry): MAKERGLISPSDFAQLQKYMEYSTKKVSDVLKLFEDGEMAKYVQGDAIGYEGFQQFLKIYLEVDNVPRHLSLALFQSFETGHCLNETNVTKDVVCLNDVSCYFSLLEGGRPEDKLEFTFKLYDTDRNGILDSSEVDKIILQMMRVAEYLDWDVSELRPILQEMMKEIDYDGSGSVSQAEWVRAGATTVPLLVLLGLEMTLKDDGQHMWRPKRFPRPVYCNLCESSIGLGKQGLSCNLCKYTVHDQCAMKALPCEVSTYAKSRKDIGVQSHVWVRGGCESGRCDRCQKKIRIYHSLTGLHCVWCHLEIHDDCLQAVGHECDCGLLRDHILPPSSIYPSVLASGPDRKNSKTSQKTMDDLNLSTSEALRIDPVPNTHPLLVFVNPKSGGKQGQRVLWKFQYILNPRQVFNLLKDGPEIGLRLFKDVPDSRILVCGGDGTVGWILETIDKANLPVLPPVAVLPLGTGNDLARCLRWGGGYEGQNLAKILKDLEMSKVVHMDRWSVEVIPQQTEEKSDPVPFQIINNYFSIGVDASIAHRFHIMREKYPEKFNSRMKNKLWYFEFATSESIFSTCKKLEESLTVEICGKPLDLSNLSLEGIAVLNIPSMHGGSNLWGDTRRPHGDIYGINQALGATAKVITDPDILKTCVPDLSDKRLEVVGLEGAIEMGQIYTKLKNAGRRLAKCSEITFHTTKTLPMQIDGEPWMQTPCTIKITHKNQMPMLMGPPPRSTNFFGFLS

SMILES | IC50 (human DGKα) [nM] | EC50 [1] [nM]
Cc1nnc2nc(N(CC(F)F)c3cc(F)cc(C#CC(C)(C)C(F)(F)F)c3)c3cc(F)cnc3n12 [Example 103, N-(2,2-difluoroethyl)-3-fluoro-N-(3-fluoro-5-(4,4,4-trifluoro-3,3-dimethylbut-1-yn-1-yl)phenyl)-9-methylpyrido[3,2-e][1,2,4]triazolo[4,3-a]pyrimidin-5-amine] | 9.34 | 1.64
CN(c1cc(F)cc(C#CC2(C)CC2)c1)c1nc2nncn2c2cncc(F)c12 [Example 91, 10-fluoro-N-[3-fluoro-5-[2-(1-methylcyclopropyl)ethynyl]phenyl]-N-methyl-2,4,5,7,12-pentazatricyclo[7.4.0.02,6]trideca-1(13),3,5,7,9,11-hexaen-8-amine] | 6.25 | 1.25
Cc1nnc2nc(N3CCOCc4c(C#Cc5cnn(C)c5)cccc43)c3ccc(C(F)(F)F)nc3n12 [Example 137, 6-((1-methyl-1H-pyrazol-4-yl)ethynyl)-1-(9-methyl-2-(trifluoromethyl)pyrido[3,2-e][1,2,4]triazolo[4,3-a]pyrimidin-5-yl)-1,2,3,5-tetrahydrobenzo[e][1,4]oxazepane] | 8.38 | 5.67
Fc1cncc2c1c(N(CC(F)F)c1ccnc(C#CC3(C(F)(F)F)CC3)c1)nc1nncn12 [Example 55, N-(2,2-difluoroethyl)-6-fluoro-N-(2-((1-(trifluoromethyl)cyclopropyl)ethynyl)pyridin-4-yl)pyrido[4,3-e][1,2,4]triazolo[4,3-a]pyrimidin-5-amine] | 23.3 | 28.1
Fc1cc(C#CC2(C(F)F)CC2)cc(N(CC(F)F)c2nc3nncn3c3cncc(F)c23)c1 [Example 43, N-(2,2-difluoroethyl)-N-(3-((1-(difluoromethyl)cyclopropyl)ethynyl)-5-fluorophenyl)-6-fluoropyrido[4,3-e][1,2,4]triazolo[4,3-a]pyrimidin-5-amine] | 33 | 5.48
Cc1nnc2nc(N3CCOCc4c(C#CC(C)(C)C#N)cccc43)c3c(F)cncc3n12 [Example 96, 4-(1-(6-fluoro-1-methylpyrido[4,3-e][1,2,4]triazolo[4,3-a]pyrimidin-5-yl)-1,2,3,5-tetrahydrobenzo[e][1,4]oxazepin-6-yl)-2,2-dimethylbut-3-ynenitrile] | 3.84 | 6.63
CN(c1cccc(C#CC(C)(C)C)c1)c1nc2nncn2c2nc(N)ccc12 [Example 126, N5-(3-(3,3-dimethylbut-1-yn-1-yl)phenyl)-N5-methylpyrido[3,2-e][1,2,4]triazolo[4,3-a]pyrimidine-2,5-diamine] | 21.4 | 3.15
CC(C)(C#Cc1cccc2c1CCCN2c1nc2nncn2c2cncc(F)c12)C(F)(F)F [Example 84, 10-fluoro-8-[5-(4,4,4-trifluoro-3,3-dimethyl-but-1-ynyl)-3,4-dihydro-2H-quinolin-1-yl]-2,4,5,7,12-pentazatricyclo[7.4.0.02,6]trideca-1(13),3,5,7,9,11-hexaene] | 10.7 | 1.19
Cc1nnc2nc(N3CCCc4c(C#CC(C)(C)C#N)cccc43)c3cc(F)cnc3n12 [Example 144, 4-(1-(3-fluoro-9-methylpyrido[3,2-e][1,2,4]triazolo[4,3-a]pyrimidin-5-yl)-1,2,3,4-tetrahydroquinolin-5-yl)-2,2-dimethylbut-3-ynenitrile] | 5.08 | 4.67
FC(F)(F)C1(C#Cc2cccc3c2CCCN3c2nc3nncn3c3cnccc23)CC1 [Example 83, 8-[5-[2-[1-(trifluoromethyl)cyclopropyl]ethynyl]-3,4-dihydro-2H-quinolin-1-yl]-2,4,5,7,12-pentazatricyclo[7.4.0.02,6]trideca-1(13),3,5,7,9,11-hexaene] | 14.2 | 1.76
Cc1nnc2nc(N3CCCCc4c(C#CC(C)(C)C(C)(F)F)cccc43)c3c(F)cncc3n12 [Example 63, 5-(6-(4,4-difluoro-3,3-dimethylpent-1-yn-1-yl)-2,3,4,5-tetrahydro-1H-benzo[b]azepin-1-yl)-6-fluoro-1-methylpyrido[4,3-e][1,2,4]triazolo[4,3-a]pyrimidine] | 11.6 | 1.09
Cc1nnc2nc(N3CCCOc4c(C#CC(C)(C)O)cccc43)c3c(F)cncc3n12 [Example 71, 4-(5-(6-fluoro-1-methylpyrido[4,3-e][1,2,4]triazolo[4,3-a]pyrimidin-5-yl)-2,3,4,5-tetrahydrobenzo[b][1,4]oxazepin-9-yl)-2-methylbut-3-yn-2-ol] | 18.5 | 304

Other lines, results leading:

IC50 (human DGKα) [nM] | EC50 [1] [nM] | SMILES
13 | 4.91 | Cc1nnc2nc(N(CC(F)F)c3cc(F)cc(C#CC(C)(C)C(F)(F)F)c3)c3c(F)cncc3n12 [Example 50, N-(2,2-difluoroethyl)-6-fluoro-N-(3-fluoro-5-(4,4,4-trifluoro-3,3-dimethylbut-1-yn-1-yl)phenyl)-1-methylpyrido[4,3-e][1,2,4]triazolo[4,3-a]pyrimidin-5-amine]
44.3 | 1.75 | CN(c1cccc(-c2cnc(C3CC3)cn2)c1)c1nc2nnnn2c2cc(Cl)ccc12 [Example 9, 8-chloro-N-(3-(5-cyclopropylpyrazin-2-yl)phenyl)-N-methyltetrazolo[1,5-a]quinazolin-5-amine]
36.2 | 9.17 | Cc1nnc2nc(N(CC(F)F)c3cc(F)cc(C#CC4(C(F)(F)F)CC4)c3)c3c(F)cncc3n12 [Example 51, N-(2,2-difluoroethyl)-6-fluoro-N-(3-fluoro-5-((1-(trifluoromethyl)cyclopropyl)ethynyl)phenyl)-1-methylpyrido[4,3-e][1,2,4]triazolo[4,3-a]pyrimidin-5-amine]
12.6 | 8.79 | Cc1nnc2nc(N3CCCc4c3ccnc4C#CC3(C)CC3)c3c(F)cncc3n12 [Example 32, 6-fluoro-1-methyl-5-(5-((1-methylcyclopropyl)ethynyl)-3,4-dihydro-1,6-naphthyridin-1(2H)-yl)pyrido[4,3-e][1,2,4]triazolo[4,3-a]pyrimidine]
17.4 | 32.1 | CN(c1cc(F)cc(C#CC(C)(C)O)c1)c1nc2nncn2c2cncc(F)c12 [Example 92, 4-[3-fluoro-5-[(10-fluoro-2,4,5,7,12-pentazatricyclo[7.4.0.02,6]trideca-1(13),3,5,7,9,11-hexaen-8-yl)-methyl-amino]phenyl]-2-methyl-but-3-yn-2-ol]
7.67 | 1.19 | Cc1nnc2nc(N3CCCCc4c(C#CC5CC5)cccc43)c3c(F)cncc3n12 [Example 68, 5-(6-(cyclopropylethynyl)-2,3,4,5-tetrahydro-1H-benzo[b]azepin-1-yl)-6-fluoro-1-methylpyrido[4,3-e][1,2,4]triazolo[4,3-a]pyrimidine]
